{"source": "patent US20190350964A1", "about": "“ANTI-CANCER COMPOUNDS AND USES THEREOF” (NATIONAL UNIVERSITY OF SINGAPORE, priority 2016, published 2019)", "key": {"IMR90": {"tested_on": "IMR90", "test": "MTT cytotoxicity test (GI50)", "assay_type": "cell-based", "settings": "Homo sapiens, IMR-90; IMR90, normal, lung; MTT 72 h"}, "IM95": {"tested_on": "IM95", "test": "MTT cytotoxicity test (GI50)", "assay_type": "cell-based", "settings": "Homo sapiens; IM95, cancer, gastric; MTT 72 h"}, "HCT15": {"tested_on": "HCT15", "test": "MTT cytotoxicity test (GI50)", "assay_type": "cell-based", "settings": "Homo sapiens, HCT-15; HCT15, cancer, colon; MTT 72 h"}, "U2OS": {"tested_on": "U2OS", "test": "MTT cytotoxicity test (GI50)", "assay_type": "cell-based", "settings": "Homo sapiens, cancer, others, bone, MTT 72 h"}, "[1]": {"target": "T1, Delta(3,5)-Delta(2,4)-dienoyl-CoA isomerase, mitochondrial (Homo sapiens, UniProt Q13011)", "T1 construct": "After collecting data covering >8,000 proteins in lysates of normal BJ cells; endogenous in cells; host or cells: normal BJ cells, lysate", "T1 sequence (Q13011 34-328)": "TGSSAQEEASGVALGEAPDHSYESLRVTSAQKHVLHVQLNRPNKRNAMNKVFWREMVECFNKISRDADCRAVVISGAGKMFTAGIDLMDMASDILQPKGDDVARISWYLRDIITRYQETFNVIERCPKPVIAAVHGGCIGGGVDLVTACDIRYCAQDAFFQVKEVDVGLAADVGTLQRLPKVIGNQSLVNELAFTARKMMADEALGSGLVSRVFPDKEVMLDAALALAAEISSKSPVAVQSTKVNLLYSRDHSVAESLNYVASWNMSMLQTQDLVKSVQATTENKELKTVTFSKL", "test": "MS-CETSA in normal BJ cell lysates", "assay_type": "binding", "settings": "lysate, 100 μM compound", "experimental": "Target identification was performed by cellular thermal shift assay (CETSA) coupled with quantitative mass spectrometry. In brief, normal BJ cells were lysed by combination of freeze/thaw and mechanical shearing with needle in buffer [50 mM HEPES (pH 7.5), 5 mM β-glycerophosphate, 0.1 mM Sodium Vanadate, 10 mM MgCl2, 1 mM TCEP and 1× Protease inhibitor Cocktail]. The cell debris was removed by centrifugation at 20,000 g for 20 min at 4° C. […] Each lysate was divided into 10 aliquots for heat treatment at the respective temperatures for 3 min in a 96-well thermocycler, followed by 3 min at 4° C. The lysate was centrifuged at 20,000 g for 20 min at 4° C. and the supernatant was transferred into microtubes for MS sample preparation.\nAfter lysis, at least 100 μg of the protein (measured with a BCA assay) was subjected to reduction, denaturation and alkylation. Samples were subsequently incubated with sequencing grade LysC (Wako) and trypsin (Promega) for digestion overnight at 37° C. The digested samples were dried using a centrifugal vacuum evaporator, solubilized in 100 mM TEAB. […]\nProteins for which a low temperature plateau was not present were deleted using a cut off >0.85 for the average reading of the first three temperature points (in our experience proteins melting already at −37° C. are more prone to give false positives in a shift analysis)."}, "[2]": {"tested_on": "Ras-driven glioma initiating cells (GICs)", "test": "Brain slice explants (orthotopically implanted ex vivo model)", "parameters": "species or system mouse", "settings": "20 μM, 4 days", "protocol": "Fifty thousand GICs were orthotopically implanted into the forebrain of wild-type mice, and at 7 days post-implantation, brain slice explants were established as previously described (Sampetrean, O. et al., Neoplasia 13: 784-791 (2011)). […] Images were acquired on an FV10i Olympus confocal microscope (Olympus) and tumor area was quantified by Nikon NIS-element software. Experiments were performed in triplicate. At the end of the experiment (Day 4), slices were fixed overnight in 4% paraformaldehyde, embedded in paraffin and then sectioned at a thickness of 4 μm. Deparaffinized sections were stained with rabbit polyclonal antibody against cleaved caspase 3 (Cell Signaling). Immune complexes were detected using Histofine (Nichirei Biosciences) and ImmPACTDAB (Vector Laboratories). All animal experiments were performed in accordance with the animal care guidelines of Keio University."}, "[3]": {"tested_on": "normal and transformed BJ cells", "test": "a131 SAR analysis: pH3(Ser10) immunoblot, BrdU incorporation, subG1 FACS", "assay_type": "cell-based, human", "parameters": "key: Group 1: possess the dual-inhibitory properties of both causing the arrest of normal BJ cells at the G1/S phase and also causing mitotic arrest/catastrophe in transformed BJ cells; Group 2: only cause the arrest of normal BJ cells at the G1/S phase; Group 3: cause mitotic arrest/catastrophe in transformed BJ cells, but do not arrest normal BJ cells at the G1/S phase; Group 4: are inactive or weakly active", "settings": "5 μM, 48 h", "protocol": "(§1) Cell death was assessed via Annexin V and/or PI (propidium iodide) staining according to the manufacturer's instructions (eBioscience). Cell growth arrest was assessed by direct measurement of DNA synthesis through incorporation of the nucleoside analog bromodeoxyuridine (BrdU). Briefly, BrdU (30 μM, Sigma-Aldrich) was added for 2 h before harvesting cells. Cells were subsequently stained with Pacific Blue-conjugated BrdU antibody (Invitrogen) for 1 h followed by PI staining. Stained cells were analyzed by MACSQuant (MACS). Three independent experiments were performed in triplicate. The percentage of Annexin V/PI- or BrdU-positive cells was quantified using Flow Jo software (Becton Dickinson). Where indicated, the combined activity of caspase-3/7 was determined using the caspase-Glo 3/7 Assay Kit (Promega) and normalized to the number of viable cells as determined by MTT assay.\nTotal cell lysates were prepared with 1% triton lysis buffer [25 mM Tris HCl (pH 8.0), 150 mM NaCl, 1% triton-X100, 1 mM dithiothreitol (DTT), protease inhibitor mix (Complete Mini, Roche) and phosphatase inhibitor (PhosphoStop, Roche)] and subjected to SDS-PAGE. The following antibodies were used for immunoblotting: anti-β-actin (Sigma-Aldrich), anti-cleaved PARP (Abcam, #ab32064), anti-PI5P4Kα (#5527), anti-PI5P4Kβ (#9694), anti-cleaved caspase-3 (#9664), anti-pHistone H3(Ser10) (#3377), anti-pAkt(S473) (#9271), anti-pAkt(T308) (#13038), anti-total Akt (#9272), anti-p70S6K(T389) (#9234), anti-total p70S6K (#9202), anti-pErk (#4370), anti-γ-Histone H2AX (#9718) (Cell signaling) and anti-PIK3IP1 (Proteintech, #16826-1-AP). The secondary antibodies used were sheep anti-mouse IgG HRP and donkey anti-rabbit IgG HRP (Amersham; 1:2000 dilution). Immunoreactive proteins were visualized using ECL reagent (Amersham). Where indicated, intensities of protein bands were quantified by densitometry (Odyssey V3.0), normalized to their loading controls and then calculated as fold expression change relative to DMSO control."}, "[4]": {"tested_on": "normal BJ cells with activated H-RasV12-ER", "test": "FACS subG1 in engineered BJ-derived fibroblasts", "assay_type": "cell-based, human", "settings": "5 μM, 48 h", "protocol": "Isogenic BJ human foreskin fibroblast cell lines, including non-transformed (normal) and transformed BJ cells and all gastric cancer cell lines, were kind gifts from Dr. Mathijs Voorhoeve and Dr. Patrick Tan (Duke-NUS), respectively and tested for mycoplasma infection. All other human cancer cell lines used in this study were purchased from ATCC and cultured in accordance with ATCC's instructions. H-RasV12-ER was activated by exposing the BJ-derived fibroblasts to 4-OHT (100 nM, Sigma-Aldrich). Three different sets of siRNAs were used in this study to target PI5P4K isoform DNA sequences as follows:\nas §1, with “Cells were subsequently stained with Pacific Blue-conjugated BrdU antibody (Invitrogen) for 1 h followed by PI staining.” left out, “Three independent experiments were performed in triplicate.” left out"}}}
{"smiles": "N#C/C(=C\\c1cccc2cnccc12)c1c[nH]c2ccccc12", "note": "[a131, (Z)-2-(1H-indol-3-yl)-3-(5-isoquinolyl)prop-2-enenitrile]", "values": [{"measurement": "GI50", "setting": "IMR90", "value": 5800, "unit": "nM"}, {"measurement": "GI50", "setting": "IM95", "value": 1000, "unit": "nM"}, {"measurement": "GI50", "setting": "HCT15", "value": 500, "unit": "nM"}, {"measurement": "GI50", "setting": "U2OS", "value": 1500, "unit": "nM"}, {"measurement": "ED score", "setting": "[1]", "value": 0.3541}, {"measurement": "ΔTm at 100 µM", "setting": "[1]; read-out: mean Delta Tm", "value": 1.51, "unit": "°C"}, {"measurement": "apoptosis (cleaved caspase-3) in tumor versus surrounding normal tissue", "setting": "[2]", "value": "induced apoptosis only in tumors, but not surrounding normal tissues"}, {"measurement": "tumor growth of GICs in brain explants (Day 4/Day 0)", "setting": "[2]", "value": "significantly suppressed growth"}, {"measurement": "Group (a131 SAR analysis)", "setting": "[3]", "value": "Group 1"}, {"measurement": "a131-induced cell death after 4-OHT-induced activation of H-RasV12-ER", "setting": "[4]", "value": "sufficient to sensitize normal BJ cells to a131-induced cell death"}]}
